Source: US8916516B2, “Treatment of fungal and/or protist infections” (AI2 Limited, priority 2005, dated 2014)

Experiments:
[1] = tested on: Candida albicans 6862 (clinical isolate); test: microbe, parasite or virus in culture; type: cell-based; settings: 6862 (clinical isolate, 24 h)
Description: (§1) Four compounds were supplied as an aqueous solution, 400 μM. Serial dilutions of each test peptide were prepared in addition to a control, which was a conventional antifungal drug, Amphoteracin B. Amphteracin B is obtained from Invitrogen or Melford laboratories.
(§2) Initial testing of the peptides was carried out against the following organisms: • 1) Aspergillus fumigatus AF293 (culture collection strain NCPF7367) • 2) Candida albicans 6862 (clinical isolate) • 3) Fusarium spp 5889 (clinical isolate) • 4) Fusarium spp 6507 (clinical isolate) • 5) Aspergillus terreus (clinical isolate) • 6) Aspergillus niger (clinical isolate) • 7) Staphylococcus aureus (Oxford strain, which is a standard reference strain used in MIC testing)
(§3) The bacterium S. aureus was tested with each of the peptides as a control. A suspension of each organism in an appropriate growth medium was added to the, dilutions of the peptides in order to give concentration ranges of 40 μM to 0.04 μM for each of the peptides, and 64-0.025 μg/ml for amphotericin B. Fungal strains were tested in RPMI media. RPMI is standard Roswell Park Memorial Institute medium (Morton, H. C., (1970) A survey of Commercially Available Tissue Culture Media. In Vitro 6: 89-108).
(§4) The final inoculum for S. aureus was 5×10^4 cfu/ml. The final inoculum for C. albicans was 2×10^3 cfu/ml. The final inoculum for Aspergillus fumigatus and for Fusarium spp was 2×10^4 cfu/ml.
(§5) Candida and S. aureus plates were read after 24 hrs incubation and the Aspergillus and Fusarium strains read after 48 hrs. The MIC was taken as the lowest drug or compound concentration that caused >80% reduction in growth compared with a drug free control.

[2] = tested on: Aspergillus fumigatus AF293 (NCPF7367); test: microbe, parasite or virus in culture; type: cell-based; settings: for MIC: AF293 (NCPF7367, 48 h); for MIC values (>80% reduction) AF: Aspergillus fumigatus 293, peptides, Tables 4 and 5
Description: as §1, §2, §3, §4, §5
Aspergillus fumigatus 293 (AF); and
FS1-FS4 were obtained from Bristol PHLS (British Public Health Laboratory Service UK). Aspergillus fumigatus 293 is publicly available as culture collection strain NCPF7367 (National Collection of Pathogenic Fungi Public Health Laboratory, Mycological Reference Laboratory Myrtle Road, Kingsdown, Bristol BS2 8EL) The Candida albicans was a clinical isolate obtained by standard means. […]

[3] = tested on: Fusarium spp 5889 (clinical isolate); test: Antifungal MIC broth dilution (Example 1); type: cell-based; settings: RPMI, 48 hrs, >80% reduction
Description: as §1, §2, §3, §4, §5

[4] = tested on: Fusarium spp 6507 (clinical isolate); test: Antifungal MIC broth dilution (Example 1); type: cell-based; settings: RPMI, 48 hrs, >80% reduction
Description: as §1, §2, §3, §4, §5

[5] = tested on: Aspergillus niger (clinical isolate); test: microbe, parasite or virus in culture; type: cell-based; settings: clinical isolate
Description: as §1, §2, §3, §5

[6] = tested on: Aspergillus terreus (clinical isolate); test: microbe, parasite or virus in culture; type: cell-based
Description: as §1, §2, §3, §5

[7] = tested on: Staphylococcus aureus (Oxford strain); test: microbe, parasite or virus in culture; type: cell-based; settings: Oxford strain, 24 h
Description: as §1, §2, §3
S. aureus was tested in Isosensitest broth. Isosentitest agar is a standard MIC medium used by many hospital labs for bacterial MICs using a disc diffusion method. The reference standard is Oxoid CM471. Also available in broth form, CM473, for the bacterial broth dilution assay method. NCCLS ref M7-A4. Both the NCCLS methods quoted are the standard methods.
as §4, §5

[8] = tested on: Acanthamoeba polyphaga (trophozoites), Ros strain; test: Microtitre plate assay against Acanthamoeba trophozoites (Example 2); type: cell-based; settings: for MATC = minimum amoebacidal trophozoite concentration: lowest concentration killing the trophozoite challenge
Excerpt: The test compounds were screened against the trophozoites of clinical isolates of Acanthamoeba spp. using a microtitre plate assay procedure. The organisms were Acanthamoeba polyphaga. (see for details on the strain and methodology used: Hughes, R. & Kilvington, S. (2001). A comparison of hydrogen peroxide contact lens disinfection systems and solutions against Acanthamoeba polyphaga. Antimicrob. Agents Chemother. 45: 2038-2043.) Acanthamoeba polyphaga Ros strain was used throughout the study. The strain was originally isolated from an unpublished case of acanthamoeba keratitis in the United Kingdom in 1994.
Use of the microliter plate assay enabled the determination of the minimum amoebacidal trophozoite concentration (MATC), which is the minimum amoebacidal trophozoite concentration (μg/ml)=lowest concentration killing the trophozoite challenge […] and also the minimum inhibitory trophozoite concentration (MITC), which is the minimum inhibitory trophozoite concentration (μg/ml)=lowest concentration stopping the trophozoites from dividing or killing about 50% of population. The values may then be used to select drug concentrations for use in time-kill experiments to study the kinetics of Acanthamoeba killing.

Fusarium solani 1 (FS1) = test: Antifungal MIC (Example 4); type: cell-based; settings: Fusarium solani 1; peptides; Tables 4 and 5
Description: (§6) The inventor expanded the work conducted in Example 1 by testing an expanded library of peptides derived from either apolipoprotein B or apolipoprotein E in order to further evaluate polypeptides in accordance with the invention. These experiments were conducted using the following fungal species:
(§7) FS1-FS4 were obtained from Bristol PHLS (British Public Health Laboratory Service UK). Aspergillus fumigatus 293 is publicly available as culture collection strain NCPF7367 (National Collection of Pathogenic Fungi Public Health Laboratory, Mycological Reference Laboratory Myrtle Road, Kingsdown, Bristol BS2 8EL) The Candida albicans was a clinical isolate obtained by standard means.
(§8) The methods used to determine, the IC50 values for each peptide were as described in the Example 1.

Fusarium solani 2 (FS2) = test: Antifungal MIC (Example 4); type: cell-based; settings: Fusarium solani 2; peptides; Tables 4 and 5
Description: as §6, §7, §8

Fusarium solani 3 (FS3) = test: Antifungal MIC (Example 4); type: cell-based; settings: Fusarium solani 3; peptides; Tables 4 and 5
Description: as §6, §7, §8

Fusarium solani 4 (FS4) = test: Antifungal MIC (Example 4); type: cell-based; settings: Fusarium solani 4; peptides; Tables 4 and 5
Description: as §6, §7, §8

[9] = tested on: Candida albicans (CA), clinical isolate; test: Antifungal MIC (Example 4); type: cell-based; settings: peptides, Tables 4 and 5
Description: as §6, §7, §8

P. berghei sporozoites = test: Sporozoite development assay in Hepa 1-6 cells (Example 5); type: cell-based, Plasmodium berghei; settings: for inhibition of entry of P. berghei into Hep 1-6 cells: sporozoites pre-incubated with polypeptide at 50 μg/ml, plated on cells with peptide present, FIG. 5(A)
Description: 3-5 day-old Anopheles stephensi mosquitoes were fed on anesthetized P. berghei (NK65)-infected Swiss Webster mice which had been checked by blood smear for the abundance of gametocyte-stage parasites. Salivary gland sporozoites were harvested on days 18 to 21 post-infective blood meal. The mosquitoes were rinsed in 70% ethanol and washed in Dulbecco's Modified Eagle Medium (DMEM) before salivary gland dissection. The glands were gently ground, spun at 80×g for 3 min to remove mosquito debris and sporozoites counted in a hemocytometer.
Hepa 1-6 cells (ATCC CRL-1830, American Type Culture Collection, Manassas, Va.), a mouse hepatoma cell line permissive for P. berghei sporozoite development were seeded (8×10^4 cells/well) in Lab-Tek permanox chamber slides (Nalgene Nunc Corp., Naperville, Ill.) and grown until confluent. On the day of the experiment, sporozoites were dissected from mosquitoes and pre-incubated with Dulbecco's Modified Eagle Medium (DMEM; Invitrogen, Carlsbad, Calif.) with 1% BSA alone or with the indicated polypeptide at 50 μg/ml for 1 hr at 28° C. and plated on cells in the continued presence of the inhibitor in DMEM containing 10% fetal calf serum (complete medium). After 1 hr at 37° C., the medium containing unattached sporozoites and polypeptide was removed and replaced with complete medium. […] The number of EEFs in each well were counted with a 40× objective on a Nikon fluorescent microscope. In other experiments, Hepa1-6 cells were pretreated with the polypeptides at 50 μg/ml in complete medium for 1 hour, washed and then sporozoites were added in complete medium without polypeptide and the assay was continued as outlined above.

fungi = type: cell-based; settings: fungus not specified; read-out: IC50 value for inhibiting fungal growth
Description: as §1, §2
The bacterium S. aureus was tested with each of the peptides as a control. […] RPMI is standard Roswell Park Memorial Institute medium (Morton, H. C., (1970) A survey of Commercially Available Tissue Culture Media. In Vitro 6: 89-108).
as §5, §8

bacteria = settings: reported by Azuma et al., Peptides 21: 327-330 (2000); cited from earlier work

| Substance | MIC [1] | MIC [2] | MIC values (>80% reduction) AF [2] | MIC [3] | MIC [4] | MIC [5] | MIC [6] | MIC [7] | MATC = minimum amoebacidal trophozoite concentration [8] | MIC values (>80% reduction) FS1 (Fusarium solani 1 (FS1)) | MIC values (>80% reduction) FS2 (Fusarium solani 2 (FS2)) | MIC values (>80% reduction) FS3 (Fusarium solani 3 (FS3)) | MIC values (>80% reduction) FS4 (Fusarium solani 4 (FS4)) | MIC values (>80% reduction) CA [9] | inhibition of entry of P. berghei into Hep 1-6 cells (P. berghei sporozoites) | MITC = minimum inhibitory trophozoite concentration ([8]; lowest concentration stopping trophozoites dividing or killing about 50% of population) | block of P. berghei entry after pretreatment of cells (P. berghei sporozoites; cells treated with peptide at 50 μg/ml for 1 hour, washed, then sporozoites added, FIG. 5(B)) | IC50 (fungi) | antibacterial activity (in words) (bacteria) |
| --- | --- | --- | --- | --- | --- | --- | --- | --- | --- | --- | --- | --- | --- | --- | --- | --- | --- | --- | --- |
| Ac-LRKLRKRLLLRKLRKRLL-NH2 [MU_10] | >40 µM | >40 µM | >40 µM | 10 µM | >40 µM | >40 µM | >40 µM | >40 µM | 207.1 µM | 2.5 µM | 5 µM | 2.5 µM | 5 µM | >40 µM | inhibit entry of P. berghei into Hep 1-6 cells | – | – | – | – |
| Ac-WRKWRKRWWWRKWRKRWW-NH2 [MU_4] | 10 µM | 2.5 µM | 1.25 µM | 2.5 µM | 10 µM | 1.25 µM | >40 µM | 5 µM | 41.7 µM | 0.3 µM | 0.3 µM | 0.3 µM | 0.3 µM | 2.5 µM | inhibit entry of P. berghei into Hep 1-6 cells | 20.8 µM | retained its ability to block P. berghei entry | ≤ 2500 nM | – |
| apoE134-151: Azuma's apolipoprotein E peptide, 18 amino acids in length (RVRLASHLRKLRKRLLRD; UniProt P02649 152-169, looked up, fragment) | – | – | – | – | – | – | – | – | – | – | – | – | – | – | – | – | – | – | no activity at all |
| apoE134-155: Azuma's apolipoprotein E peptide, 22 amino acids in length (RVRLASHLRKLRKRLLRDADDL; UniProt P02649 152-173, looked up, fragment) | – | – | – | – | – | – | – | – | – | – | – | – | – | – | – | – | – | – | very low antibacterial activity |
| apoE134-159: Azuma's apolipoprotein E peptide, 26 amino acids in length (RVRLASHLRKLRKRLLRDADDLQKRL; UniProt P02649 152-177, looked up, fragment) | – | – | – | – | – | – | – | – | – | – | – | – | – | – | – | – | – | – | greatly reduced antibacterial activity |
